Where two headings read alike, the source gives them in different places. One block for each substance: values may come before it. Bridges are numbered along the chain shown (N, C = ends). Where no end group is shown, it is not given here.
Legend:
human MC1R [1] = target: T1, human MC1R (Homo sapiens, UniProt Q01726); conditions: at high concentration, printed in the Ki column, cited from earlier work
human MC1R [2] = target: T1, human MC1R; assay: Eu-NDP-MSH displacement binding assay, MC1R
human MC4R = human MC4R (Homo sapiens, UniProt P32245); assay: Eu-NDP-MSH displacement binding assay, MC4R
[3] = target: human melanocortin receptor MC1R (Homo sapiens, UniProt Q01726); assay type: cell-based; conditions: absence of NDP-MSH; basal response taken as zero; HEK-293 cells with human MC1R
Chain of human melanocortin receptor MC1R (Q01726 whole entry): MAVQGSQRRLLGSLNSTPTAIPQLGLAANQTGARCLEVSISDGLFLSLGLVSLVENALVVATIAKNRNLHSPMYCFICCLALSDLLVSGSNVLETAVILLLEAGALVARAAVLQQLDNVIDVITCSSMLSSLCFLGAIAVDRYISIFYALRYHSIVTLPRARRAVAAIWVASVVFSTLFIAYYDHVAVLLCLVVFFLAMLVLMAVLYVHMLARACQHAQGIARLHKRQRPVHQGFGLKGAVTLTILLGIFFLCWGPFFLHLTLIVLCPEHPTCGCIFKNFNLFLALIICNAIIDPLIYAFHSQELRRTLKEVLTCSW

T1 sequence (Q01726 whole entry): as above
Chain of human MC4R (P32245 whole entry): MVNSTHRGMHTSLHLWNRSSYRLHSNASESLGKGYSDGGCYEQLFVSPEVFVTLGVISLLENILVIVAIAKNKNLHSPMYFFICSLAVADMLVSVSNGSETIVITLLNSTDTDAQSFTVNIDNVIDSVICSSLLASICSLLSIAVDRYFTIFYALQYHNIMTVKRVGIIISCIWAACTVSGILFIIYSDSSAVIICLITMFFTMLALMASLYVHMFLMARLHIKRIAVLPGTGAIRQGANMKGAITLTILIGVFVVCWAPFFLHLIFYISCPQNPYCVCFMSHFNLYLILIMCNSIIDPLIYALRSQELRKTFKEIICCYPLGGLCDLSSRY

Substance: CVRLHESCLGQQVPCCDPAATCYCRFFNAFCYCR (also: bicyclic or more (positions not given here)) [chi(−1 −1 0)]
- MC1R suppression of NDP-MSH binding (partial displacement of agonist) (human MC1R [1]): 26%

- Ki (human MC1R [2]): 4.9 ± 1.1 nM
- MC1R fold diff. (human MC1R [2]; fold difference of MC1R Ki relative to ASIP [chi(+1 +1 +1)]): 7.0
- Ki (human MC4R): 2.1 ± 0.3 nM
- MC4R fold diff. (human MC4R; fold difference of MC4R Ki relative to ASIP [chi(+1 +1 +1)]): 1.6
Substance: Ac-KKVVRPRTPLSAPCVATRNSCKPPAPACCDPCASCYCRFFNAFCYCRVLSLNC-NH2 (disulfide 14-29, 21-35, 28-46, 32-53, 37-44) [chi(+1 −1 +1)]

Substance: CVRLHESCLGQQVPCCDPCATCYCRFFNAFCYCRKLGTAMNPCSRT (bicyclic or more) [AgRP [chi(−1 −1 −1)], reference compound]
- MC1R suppression of NDP-MSH binding (partial displacement of agonist) (human MC1R [1]): 47%
- MC1R suppression of NDP-MSH binding (partial displacement of agonist) (human MC1R [1]; listed as chi(−1 −1 −1)): 47%

- Effect on cAMP production at MC1R (functional class) [3]: agonists
Substance: CVRLHESCLGQQVPCCDPAATCYCRFFRSACYCR (also: bicyclic or more (positions not given here)) [chi(−1 +1 0)]

— PMC2972358 (Journal of molecular biology, 2010)
